Experiments:
Assay type in all cases: cell-based, human
LUHMES cells [1] = experiment: Compound general toxicity, calcein viability assay; settings: 1 nM to 100 μM, 96 h, differentiation medium, calcein fluorescence
Method: We used LUHMES (lund human mesencephalic) cells derived from human embryonic ventral mesencephalic cells by conditional immortalization (Tet-off v-myc overexpression). Cells were grown in monolayer at 37 °C in a humidified atmosphere of 5% CO2, in 75 cm^2 tissue culture flasks coated with 0.05 µg/ml PLO (poly-L-ornithine). Cells were maintained in growth medium of DMEM/F12 (Sigma-Aldrich, St. Louis, MO, USA), supplemented with 1% N-2 supplement (Gibco, Thermo Fisher Scientific, Waltham, MA, USA) and 0.04 µg/ml basic fibroblast growth factor (PreproTech EC, Waltham, MA, USA), and routinely dissociated with trypsin–EDTA solution and subcultured when reaching 70% confluence to avoid overgrowth. […]
The calcein AM green dye (Thermo Fisher Scientific) was diluted in DMSO to obtain a 1 mM stock solution. […] Cells were lysed in a 200 µl volume of 1% Triton™ X-100 in PBS (phosphate buffered saline) and the lysate transferred to a 96‐well black plate for the readout. The fluorescence signal was measured on a FLUOstar® Omega plate reader (BMG LabTech, Ortenberg, Germany) at λ Ex/Em = 485/530 nm and data was analyzed with the MARS data analysis software (BMG LabTech). For background correction, we subtracted the background control signal from the measured values of all experimental conditions. Data were expressed as percentage of viability relative to the control (DMSO-treated) condition. […]

LUHMES cells [2] = experiment: Protective effects against annonacin toxicity, calcein viability assay; settings: with 20 nM annonacin, glucose-reduced medium, 48 h; 40 μM Ki 696–2, 1 μM HPP-D, 15 μM ezetimibe, 4 μM licochalcone A; most protective or highest non-toxic concentration for the others
Method: The calcein AM green dye (Thermo Fisher Scientific) was diluted in DMSO to obtain a 1 mM stock solution. The stock solution was further diluted in HBSS (Hanks' balanced salt solution), immediately before incubation, to achieve a final working concentration of 1 μM in the well. The medium was removed, the cells were washed once with warm HBSS, and 200 µl of calcein working solution was added to each well. For background correction, 200 µl of calcein working solution was added to a well without cells (background control). After 30 min of incubation at 37 °C, the calcein solution was removed and the cells were washed once with HBSS. Cells were lysed in a 200 µl volume of 1% Triton™ X-100 in PBS (phosphate buffered saline) and the lysate transferred to a 96‐well black plate for the readout. The fluorescence signal was measured on a FLUOstar® Omega plate reader (BMG LabTech, Ortenberg, Germany) at λ Ex/Em = 485/530 nm and data was analyzed with the MARS data analysis software (BMG LabTech). For background correction, we subtracted the background control signal from the measured values of all experimental conditions. Data were expressed as percentage of viability relative to the control (DMSO-treated) condition.
For pharmacological treatments, we acquired several previously described Nrf2-pathway activators: ezetimibe (Cayman), licochalcone A (MedChem Express, New Jersey, NJ, USA), bardoxolone methyl, saracatinib and PP2 (AbMole BioScience Inc., Houston, TX, USA). The enantiomers Ki 696–1 and Ki 696–2, and the compound HPP-D were kindly provided by Orion Pharma (Espoo, Finland). All compounds were dissolved in DMSO and stored in small aliquots at -80 °C to avoid freeze–thaw cycles. Compound general toxicity was determined on PLO/FN double-coated 48-well microplates as follows: after 4 days of differentiation, LUHMES cells were incubated with the different Nrf2-pathway activators at concentrations ranging from 1 nM to 100 µM, for 96 h. The cell viability was assessed by calcein assay on day 8 of differentiation. Non-toxic concentrations of the Nrf2-pathway activators were selected and used in the pharmacological treatments, in combination with 20 nM of annonacin, in glucose-reduced differentiation medium, over a period of 48 h, similar to an in vitro model reported before. The protective effects of Nrf2-pathway activators against annonacin toxicity were determined in terms of cell viability with the calcein assay.

LUHMES cells [3] = experiment: Mitochondrial membrane potential (JC-1 probe); settings: CCCP 50 µM, positive control
Method: In PLO/FN-coated 24-well microplates, cells were simultaneously incubated with 20 nM of annonacin and the selected concentrations of Nrf2-pathway activators, in glucose-reduced medium, over the course of 24 h. After that, the medium was removed and cells were washed once with warm HBSS, followed by incubation with 5 µM JC-1 solution in HBSS, for 20 min at 37 °C. For the positive control, the mitochondrial oxidative phosphorylation uncoupler, CCCP, was used at a concentration of 50 µM. After the incubation period, cells were washed with HBSS, and fresh HBSS was added to keep the cells viable during live-image acquisition. Image acquisition was done on a fluorescence microscope Leica-DFC9000GTC (Leica, Frankfurt, Germany). Environmental conditions were kept steady at 37 °C with a 5% CO2 atmosphere during the entire acquisition time. Ten to fifteen images from different fields of view, dispersed across triplicates, were acquired with 200 × magnification (20 × objective, 10 × intermediate magnification), using the same image acquisition parameters for all conditions. The fluorescence of JC-1 monomers was captured on the green channel (λ Ex/Em = 475/519 nm) and the fluorescence of JC-1 aggregates was capture on the red channel (λ Ex/Em = 555/594 nm). Quantification of FI (fluorescence intensities) of JC-1 monomeric and aggregated forms was done using the ImageJ software (http://rsb.info.nih.gov/ij/, ImageJ bundled with 64-bit Java 8). Briefly, TIFF exported images were submitted to background subtraction using the rolling ball method with a radius of 50 pixels. Channel-specific thresholds were applied to all images to define the ROI (region of interest) and FI were measured as integrated density. Data were reported as the ratio between JC-1 aggregates and monomers, obtained by dividing the FI of the JC-1 aggregated form by the FI of the monomeric form.

LUHMES cells [4] = experiment: Mitochondrial superoxide (MitoSOX / calcein AM); settings: 100 µM H2O2, 2 h, positive control
Method: As before, cells seeded on PLO/FN-coated 24-well microplates were treated for 48 h with 20 nM of annonacin and the selected concentrations of Nrf2-pathway activators, in glucose-reduced medium. After this period, the medium was removed, and the cells were washed once with warm HBSS before being simultaneously incubated with 0.5 µM of MitoSOX™ red (Thermo Fisher Scientific) and 1 µM of calcein AM for 30 min at 37 °C. Next, the cells were again washed with HBSS and fresh HBSS was added to maintain cell viability during live-image acquisition on a fluorescence microscope Leica-DFC9000GTC (Leica). The cells were kept under controlled environmental conditions, and similar image acquisition parameters were used for all images, as explained before. We acquired ten to fifteen images per condition, from different view fields across triplicates, with a 200 × magnification (20 × objective, 10 × intermediate magnification). Quantification of MitoSOX and calcein AM FI was performed using the ImageJ software. Briefly, TIFF exported images were submitted to background subtraction using the rolling ball method with a radius of 50 pixels. Channel-specific thresholds were applied to all images to define the ROI, and the FI were measured as integrated density and reported as arbitrary units (a. u.). The MitoSOX FI was normalized to cell viability estimated by calcein AM FI, to obtain a MitoSOX FI/calcein FI ratio. The average ratio of the different view fields per experimental condition was taken and reported as fold change relative to the control (DMSO-treated) condition.

COC(=O)[C@]12CCC(C)(C)C[C@H]1[C@H]1C(=O)C=C3[C@@]4(C)C=C(C#N)C(=O)C(C)(C)[C@@H]4CC[C@@]3(C)[C@]1(C)CC2 [bardoxolone, bardoxolone methyl]
impact on viability of differentiated LUHMES neuronal cells (compound toxicity) (LUHMES cells [1]): extremely neurotoxic at concentrations above the nanomolar range

CC(C)(C)n1nc(-c2ccc(Cl)cc2)c2c(N)ncnc21 [PP2]
reduction of annonacin toxicity (LUHMES cells [2]): no statistical differences

N#CC(C#N)=NNc1cccc(Cl)c1 [CCCP]
mitochondrial membrane potential (JC-1 aggregates) (LUHMES cells [3]): drastically reduced the presence of JC-1 aggregates

CN1CCN(CCOc2cc(OC3CCOCC3)c3c(Nc4c(Cl)ccc5c4OCO5)ncnc3c2)CC1 [saracatinib]
reduction of annonacin toxicity (LUHMES cells [2]): no statistical differences

OO [H2O2]
MitoSOX fluorescence intensity (LUHMES cells [4]): increased the MitoSOX fluorescence intensity
